Source: patent US20260209325A1, “SELECTIVE AND POTENT INHIBITORY ANTIBODIES OF MYOSTATIN ACTIVATION” (SCHOLAR ROCK, INC., priority 2022, published 2026)
Several values for one entry are separate records, joined by “and”; a condition that tells them apart may be missing. Identical values can stand only once.

Columns and labels:
latent myostatin = latent myostatin (Homo sapiens, UniProt O14793); conditions: in vivo; cited from earlier work
[1] = patients with SMA, Phase 2 (TOPAZ; NCT03921528); cited from earlier work
[2] = Ab109 with 0.01 or 0.04 mg/kg semaglutide in DIO mice (Example 9); type: in vivo, mouse; conditions: for loss in perigonadal fat pad weight: FIG. 22A; for loss in inguinal fat pads: FIG. 22B; for loss in quadriceps weight: FIG. 21A
Description: Male C57/BL6 male mice (n=8/group) were placed on a 60% high fat diet at […] of age and maintained on the 60% high fat diet until 21 weeks of age (Groups 1-12), at which time the study began (day −7). On day −7, animals in groups 1-12 were switched to a 45% high fat diet and maintained on the 45% high fat diet until the animals were terminated. […] Body weight was measured three times per week and qNMR measurements of lean mass and fat mass were obtained pre-dose on day 0 and on days 7, 14 and 21. Fasting glucose was measured on day 18 after a 4 hour fast.
Animals in groups 3-12 were dosed with semaglutide daily for 3 weeks, then terminated. Animals in groups 1, 3, and 4 were treated with IgG control antibody, and those in groups 2, 5-12 were treated with myostatin activation inhibiting antibody treatment, for 3 weeks.
At termination, left gastrocnemius and quadriceps muscles were removed and frozen; the liver was weighed, one lobe was frozen; epididymal (perigonadal) adipose tissue was removed and weighed; inguinal (subcutaneous) adipose tissue was removed and weighed; and a terminal serum bleed was obtained.

[3] = Wilding et al. 2022; cited from earlier work
leptin = experiment: circulating leptin, U-PLEX Metabolic Hormones Combo 1 (Example 6); type: in vivo, mouse; conditions: FIG. 14K
Description: Circulating leptin was measured using the U-PLEX Metabolic Hormones Combo 1 (mouse) according to manufacturer's instructions (Meso Scale Diagnostics, #K15306K-2). As expected, circulating leptin was higher in animals fed the high fat diet than animals fed a standard chow.

[4] = semaglutide plus Ab109 in DIO mice incl. semaglutide withdrawal (Example 6); type: in vivo, mouse
Description: Male C57/BL6 male mice (n=8/group) were either fed regular mouse chow (Group 1) or placed on a 60% high fat diet at six weeks of age and maintained on the 60% high fat diet until 21 weeks of age (Groups 2-8), at which time the study began (day 0). On day 0, animals in groups 2-8 were switched to a 45% high fat diet and maintained on the 45% high fat diet until the animals were terminated. […] Body weight was measured three times per week and qNMR measurements of lean mass and fat mass were obtained on the days set forth.
Animals in groups 3 and 4 were dosed with semaglutide weekly for 14 days, then terminated. Animals in groups 5 and 6 (weight regain groups), were treated with semaglutide for 35 days, then the semaglutide treatment was ended while the myostatin activation inhibiting antibody treatment continued until the animals were terminated on day 63. The animals in Groups 7 and 8 were treated with semaglutide for 63 days, i.e., they remained on semaglutide until the study terminated on day 63.
At termination, left and right gastrocnemius muscles were removed and frozen; the liver was weighed, one lobe was fixed, and the remainder was frozen; epididymal adipose tissue was removed and weighed; subcutaneous adipose tissue was removed and weighed; and a terminal serum bleed was obtained.

[5] = type 2 diabetics, meta-analysis; cited from earlier work
[6] = high fat diet mice treated with metformin and antibody (Example 4); type: in vivo, mouse; conditions: monotherapy, 45% high fat diet; FIG. 12A
Description: Male C57/BL6 mice were fed a 60% high fat diet beginning at six weeks of age. At nineteen weeks of age (day 0), the mice were switched to a 45% high fat diet for 63 days. […] These mice were further divided into groups that received either 50 mg/kg of metformin or no metformin (Table 22a).
Body weight and food intake were monitored three times per week throughout the study. On days 7, 35, 49, and 63, body composition was determined by qNMR, and glucose, ketones, and insulin were measured. At the end of the study on day 63, body composition was determined by qNMR; glucose, ketones, and insulin were measured, gastrocnemius muscle, whole liver, epididymal, and subcutaneous adipose tissue was collected and weighed.
Male C57/BL6 mice (n=8/group) were fed a 60% HFD until week 18, at which time they are switched to a 45% HFD for 7 days. At day 7, animals in group 3-6 were treated with 50 mg/kg/day metformin, given orally throughout the remainder of the study.
Body weight was measured three times per week; lean mass and fat mass were measured by qNMR on days 7, 35, 49, 63, and 77; serum glucose was also measured on days 7, 35, 49, 63, and 77; serum insulin was measured on days 49, 63, and 77. A glucose tolerance test (GTT) and an insulin tolerance test (ITT) was administered between day 56 and day 63.

[7] = obese patients with type 2 diabetes; cited from earlier work
[8] = test system: follicle stimulating hormone (FSH); conditions: women; cited from earlier work

apitegromab: selective myostatin inhibitor antibody that targets pro/latent myostatin and inhibits its activation
circulating latent myostatin in treated subjects (latent myostatin): elevated levels of circulating latent myostatin
efficacy and safety [1]: shown efficacy and safety

semaglutide [reference compound]
loss in lean mass ([2]; 0.01 mg/kg semaglutide, FIG. 20B): 4.7%
loss of lean mass ([2]; 0.04 mg/kg semaglutide and hIgG, 3 weeks, FIG. 20A): about 9.5%
body weight ([2]; 45% high fat diet, semaglutide 0.01 or 0.04 mg/kg daily, 3 weeks, FIGS. 18A-B): lost weight
loss in perigonadal fat pad weight ([2]; semaglutide 0.01 mg/kg): −19.1%
loss in inguinal fat pads ([2]; semaglutide 0.01 mg/kg): −21.4%
fat mass loss ([2]; semaglutide 0.04 mg/kg alone or with Ab109, FIG. 19A, 19C): induced fat mass loss
loss in perigonadal fat pad weight ([2]; semaglutide 0.04 mg/kg): −45.5%
loss in inguinal fat pads ([2]; semaglutide 0.04 mg/kg): −47.4%
loss in gastrocnemius muscle weight ([2]; semaglutide 0.01 and 0.04 mg/kg, dose of each value not stated, FIG. 21B): −16.9% and −20.3%
loss in quadriceps weight ([2]; semaglutide high dose (0.04 mg/kg)): −7.6%
loss in quadriceps weight ([2]; semaglutide low dose (0.01 mg/kg)): −4.8%
regain of prior weight loss one year after discontinuing treatment [3]: regained two-thirds of their prior weight loss
circulating leptin (leptin): lowered circulating leptin
body weight ([4]; 45% high fat diet, semaglutide 0.04 mg/kg with hIgG or Ab109, incl. regain after withdrawal, FIG. 14A): lost weight
loss of lean mass while on semaglutide ([4]; semaglutide and hIgG): about 4%
net loss of lean mass at the end of the study ([4]; semaglutide and hIgG, after semaglutide was stopped): 2.5%
fat mass ([4]; semaglutide, and regain after withdrawal with Ab109 or control IgG, FIG. 14D): induced fat mass loss

CN(C)C(=N)N=C(N)N [metformin, reference compound]
effect on weight loss [5]: no effect on weight loss
fat mass gain [6]: Neither metformin alone nor Ab109 alone showed this effect

bimagrumab: an anti-ActRIIB antibody
total body fat mass and lean mass [7]: reduce total body fat mass and increase lean mass
follicle stimulating hormone (FSH) [8]: significantly reduce follicle stimulating hormone (FSH)
